Laboratory results as given in US5691348A, “Pyridyl imidazole derivatives and processes for the preparation thereof” (Daewoo Electronics Co., Ltd., priority 1994, dated 1997).

Tests used:
[1] = test system: angiotensin II receptor; experiment: Angiotensin II receptor binding assay ([3H] angiotensin II); parameters: species or system rat (Sprague-Dawley adrenal cortex/medulla; Wistar liver); details: 25° C., 60 minutes, test concentration not given
Experimental: 1. Angiotensin II receptor binding assay
In accordance with the procedure disclosed in Chiu, A. T. et al., Eur. J. Pharm., 157, 13(1981), a ligand marked with a radioisotope was reacted with an angiotensin II receptor and the reactant was filtered with a glass fiber to remove unreacted ligand. After washing the filter, the amount of the remaining isotope was measured to determine the binding activity of the ligand, as described below in detail.
Sprague-Dawley rats and Wistar rats of 250 to 350 g (from The Korea Research Institute of Chemical Technology) were tested and the test procedures were carried out at 4° C., unless otherwise specified. Adrenal gland was separated from the Sprague-Dawley rats (liver, in the case of Wistar rats) into cortex and medulla. The separated adrenal cortex and medulla were washed with a sucrose buffer solution (0.2M sucrose, 1 mM EDTA, 10 mM Tris, Ph 7.2) and homogenized in the same buffer solution by using a Teflon pestle and a Brinkmann homogenizer. The homogenates were centrifuged at 3,000× g for 10 minutes to remove precipitates and further centrifuged at 12,000× g for 13 minutes. The final supernatants were centrifuged at 102,000× g for 1 hour to obtain precipitates, which were washed with a Tris buffer solution (50 mM Tris, 5 mM MgCl2, pH 7.2) and recentrifuged at 102,000× g for 1 hour. The resulting precipitates were immediately processed at the following step or stored at -70° C.
The precipitates were suspended in a Tris buffer solution. The amount of protein was determined by using a Bio-Rad DC protein analyzing kit and the protein concentration was adjusted to the amounts of: 0.2 to 0.3 mg/ml (Sprague-Dawley rat: adrenal cortex), 1.5 to 2.0 mg/ml (Sprague-Dawley rat: adrenal medulla), and 1.5 to 2.0 mg/ml (Wistar rat: liver). To the suspension, bovine serum albumin(BSA) was added to a concentration of 0.25 wt % and the resultant was immediately processed at the following step or stored at -70° C.
50 μl (based on ligand) of [^3 H] angiotensin II (NEN, NET-446) and 10 μl of each of the test compounds with various concentrations were added to the buffer solution (50 mM Tris (pH 7.2), 5 mM MgCl2, 0.25% BSA) to adjust the final volume to be 0.5 ml. 100 μl of the receptor suspension was added thereto and the resulting solution was reacted for 60 minutes while stirring in a water bath at 25° C. 3 ml of cold buffer solution for analysis was added to cease the reaction. The isotope which was bound to the receptor was isolated from the resultant by using Brandel Cell Harvester System with Whatman glass fiber GF/C. After washing the filter, the radioactivity of the filter was determined by using a liquid scintillation counter. Binding inhibition(%) of the test compound was calculated as follows:
Binding Inhibition(%)=[{(T-B)-(S-B)}/(T-B)]×100
wherein T is the radioactivity (cpm) of the reaction product untreated with the test compound, S is the radioactivity (cpm) of the reaction product treated with the test compound, and B is the radioactivity (cpm) of blank test.

[2] = test system: furosemide-administered dogs; experiment: Duration of action in furosemide-administered dogs; assay type: in vivo, dog; details: 0.3 mg oral
Experimental: A number of dog was fed freely in a feeding room and those weighing 7 to 12 kg in good health were selected regardless of their gender.
The test dog was anesthetized with 30 mg/kg of pentobarbital sodium by intravenous injection and the left femoral artery and femoral vein were separated carefully. Silicone catheter, specially prepared and filled with saline treated with heparin (1,000 IU/ml), was cannulated into the blood vessels. After the surgery, the dog was constrained to measure the blood pressure continuously with Gould 2000 physiograph adapted to a Grass P23XL pressure transducer; and the heart rate was monitored with ECG/Biotacho amplifier. The dog was tested at least 2 days after the surgery.
10 mg/kg of furosemide was injected intramuscularly 18 hours (in case of intravenous injection, 2 hours) before the beginning of the test (administration of the test compound) to improve the activity of renin in blood plasma. After the injection of furosemide, neither food nor water was provided. […] The blood pressure and heart rate were measured up to 8 hours after the administration of each test compound.
The compound of Example 1 and the Merck compound were administered orally to the furosemide-administrated dogs as in test 3(i), and blood pressure lowering effect was measured with time.

Binding Inhibition [1]: 85.4%
Compound: CCCCc1nc2cc(-c3cccc[n+]3[O-])c(CO)nc2n1Cc1ccc(-c2ccccc2-c2nn[nH]n2)cc1 [Example 1, 2-Butyl-5-hydroxymethyl-6-(1-oxy-pyridin-2-yl)-3-[2'-(1H-tetrazol-5-yl)-biphenyl-4-ylmethyl]-3H-imidazo[4,5-b]pyridine]
Maximum Blood Pressure Lowering Effect ([2]; 0 min): 0.0%
Maximum Blood Pressure Lowering Effect ([2]; 10 min): 2.2%
Maximum Blood Pressure Lowering Effect ([2]; 20 min): -1.1%
Maximum Blood Pressure Lowering Effect ([2]; 30 min): -5.9%
Maximum Blood Pressure Lowering Effect ([2]; 60 min): -11.4%
Maximum Blood Pressure Lowering Effect ([2]; 90 min): -12.9%
Maximum Blood Pressure Lowering Effect ([2]; 120 min): -14.8%
Maximum Blood Pressure Lowering Effect ([2]; 150 min): -16.1%
Maximum Blood Pressure Lowering Effect ([2]; 180 min): -16.7%
Maximum Blood Pressure Lowering Effect ([2]; 210 min): -17.4%
Maximum Blood Pressure Lowering Effect ([2]; 240 min): -18.2%
Maximum Blood Pressure Lowering Effect ([2]; 270 min): -17.0%
Maximum Blood Pressure Lowering Effect ([2]; 300 min): -20.5%
Maximum Blood Pressure Lowering Effect ([2]; 330 min): -20.7%
Maximum Blood Pressure Lowering Effect ([2]; 360 min): -20.4%
Maximum Blood Pressure Lowering Effect ([2]; 390 min): -20.1%
Maximum Blood Pressure Lowering Effect ([2]; 420 min): -20.5%
Maximum Blood Pressure Lowering Effect ([2]; 450 min): -20.5%
Maximum Blood Pressure Lowering Effect ([2]; 480 min): -20.0%
time for which the maximum blood pressure lowering effect lasted after the administration ([2]; Table 6, dogs): up to 8 hours
